The structures appear in SMILES notation.

The assay addresses T1, Alpha-1A adrenergic receptor (Homo sapiens, UniProt P35348).
T1 sequence (P35348 whole entry): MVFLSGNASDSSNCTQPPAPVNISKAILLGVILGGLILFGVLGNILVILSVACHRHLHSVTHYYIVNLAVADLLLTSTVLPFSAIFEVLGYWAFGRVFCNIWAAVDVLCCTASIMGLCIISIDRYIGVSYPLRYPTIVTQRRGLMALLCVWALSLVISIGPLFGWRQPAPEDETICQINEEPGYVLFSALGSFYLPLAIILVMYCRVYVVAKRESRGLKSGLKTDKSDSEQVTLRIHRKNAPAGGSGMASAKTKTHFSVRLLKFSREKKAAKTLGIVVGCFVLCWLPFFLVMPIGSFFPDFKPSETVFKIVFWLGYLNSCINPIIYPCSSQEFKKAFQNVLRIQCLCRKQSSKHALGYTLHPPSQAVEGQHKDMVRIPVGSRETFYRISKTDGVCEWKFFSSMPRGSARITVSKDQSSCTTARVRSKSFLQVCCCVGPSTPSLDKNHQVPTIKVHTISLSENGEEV
The experiment in a line: Inhibition of [3H]prazosin binding to human adrenergic alpha-1A receptor expressed in CHO-K1 cell membranes.

`O=C(NCCCCN1CCN(c2csc3cc(F)ccc23)CC1)c1cnccn1` registered a Ki of 1.4 nM.
In the case of `Clc1ccc(C2(Cn3ccnc3)OCC(CN3CCN(CCc4ccccc4)CC3)O2)c(Cl)c1` (centres undefined), the affinity corresponds to a Ki of 300 nM.
For `Nc1ccc(C(=O)NCCN2CCC(c3cccc4[nH]ccc34)CC2)cc1` the value was 9.5 nM; for `COc1ccccc1N1CCN(CCCNc2cc(O)nc(Nc3c(Cl)cccc3Cl)n2)CC1`, 3.6 nM.

One may read the Ki as a dissociation constant, usually derived from enzyme kinetics or from competition with a known ligand. The low end stands for higher affinity, the high end for lower affinity.
